Reference: patent US12042472B2 (pHase Pharmaceuticals LLC, priority 2017, dated 2024)

Test: in vivo
Conditions: for concentration at 0.033 h: Day 1, hour 0.033, LLQ 1 ng/mL
Method: Using a standard, by weight, randomization procedure, 21 male animals (weighing 3.25 to 3.73 kg at randomization), from a total of 36 male experimentally naïve New Zealand White Hra:(NZW)SPF albino rabbits (approximately 6 to 7 months of age), were assigned to the study as presented in Table 5.
To induce an anaphylactic syndrome, animals in Groups 1 to 4 were administered horse serum (0.2μ sterile filtered) via subcutaneous (“SC”) injection at dose volume of 2 mL/animal, followed two days later by an intravenous (“IV”) injection at a dose volume of 2 mL/animal.
Forty-one to 44 days following the beginning of the induction period, the animals were sedated by administration of 2 to 3 mg/kg via IM injection of acepromazine, 0.02 mg/kg via IM injection of buprenorphine and sevoflurane via inhalation.
Following induction of anesthesia, all animals were placed in dorsal recumbency position and an incision was made to locate the right or left femoral artery. An arterial sheath was introduced and advanced into the isolated artery and used to monitor blood pressure. Additionally, an off midline cervical neck incision was made to locate and isolate the left or right external jugular vein for collection of blood and for emergency drug administration, as needed.
Following induction of anesthesia and catheter placement, single or repeated challenge doses of 0.5 to 2 mL of filtered horse serum were administered intravenously to each animal in Groups 1 to 4.
Prior to tablet administration, the mouth of the animal was wet with 0.5 mL of tap water and the mouth was held shut for 15 to 30 seconds to help dissolve the tablet. For IM administration, the injections were made in the right rear flank of each animal.
Each 50 μL aliquot of standard, QC sample, and study sample was mixed with 200 μL of working internal standard solution (25 ng/mL in acetonitrile/methanol (50/50, v/v)). The sample was centrifuged, and a 200 μL aliquot of the resulting supernatant was transferred to a clean 96-well plate. The sample was evaporated and reconstituted with […] of water/formic acid (100/0.1, v/v). An aliquot was injected onto an LC-MS/MS system for analysis.
The liquid chromatography system used an ACE 5 C18 column, 50×2.1 mm (5 μm particle size) with an isocratic flow consisting of water/formic acid (100/0.1, v/v) and methanol/formic acid (100/0.05, v/v) at a flow rate of 400 μL/minute. The analyte and internal standard were detected using an SCIEX API 5000 triple quadrupole LC-MS/MS system equipped with an ESI (TurboIonSpray®) ionization source operated in the positive ion mode.
The lower limit of quantitation was 1 ng/ml and a linear 1/x2 weighting regression analysis was used.
Concentrations less than the lower limit of quantitation (LLOQ, <1.00 ng/mL) were reported as and set to zero. For each animal, the following pharmacokinetic parameters were determined: maximum observed plasma concentration (Cmax), time of maximum observed plasma concentration (Tmax), and area under the plasma concentration-time curve (AUC).
The formulation ratio was calculated using the following formula: Formulation Ratio=Mean AUC0-60 min Buccal Citrate÷Mean AUC0-60 min Buccal No citrate. The Induced Anaphylaxis to Non-induced anaphylaxis ratio was calculated using the following formula: Induced Anaphylaxis:Non-Induced Anaphylaxis=Mean AUC0-60 min Induced Anaphylaxis IM÷Mean AUC0-60 min Non-induced Anaphylaxis IM. Relative bioavailability (expressed as a percent) was calculated using the following formula: Relative Bioavailability=[AUC0-60 min/DoseBuccal (citrate and/or no citrate)]÷[AUC0-60 min/DoseIntramuscular (induced and/or non-induced)]*100.

Concentration (ng/mL), plasma epinephrine (Group 7, dose 0.3 mg, subject 701, male, Day 1, hour 0.333, LLQ 2 ng/mL): BLQ
concentration at 0 h (male, New Zealand White Hra:(NZW)SPF, rabbit, plasma, intramuscular, 0.3 mg, Concentration (ng/mL), plasma epinephrine, Group 7, dose 0.3 mg, subject 701, male, Day 1, hour 0, LLQ 2 ng/mL): 2.48 ng/mL
concentration at 0.033 h (male, New Zealand White Hra:(NZW)SPF, rabbit, plasma, intramuscular, 0.3 mg, Concentration (ng/mL), plasma epinephrine, Group 7, dose 0.3 mg, subject 701, male): 2.75 ng/mL
concentration at 0.083 h (male, New Zealand White Hra:(NZW)SPF, rabbit, plasma, intramuscular, 0.3 mg, Concentration (ng/mL), plasma epinephrine, Group 7, dose 0.3 mg, subject 701, male, Day 1, hour 0.083, LLQ 2 ng/mL): 4.32 ng/mL
concentration at 0.125 h (male, New Zealand White Hra:(NZW)SPF, rabbit, plasma, intramuscular, 0.3 mg, Concentration (ng/mL), plasma epinephrine, Group 7, dose 0.3 mg, subject 701, male, Day 1, hour 0.125, LLQ 2 ng/mL): 5.73 ng/mL
concentration at 0.167 h (male, New Zealand White Hra:(NZW)SPF, rabbit, plasma, intramuscular, 0.3 mg, Concentration (ng/mL), plasma epinephrine, Group 7, dose 0.3 mg, subject 701, male, Day 1, hour 0.167, LLQ 2 ng/mL): 4.76 ng/mL
concentration at 0.25 h (male, New Zealand White Hra:(NZW)SPF, rabbit, plasma, intramuscular, 0.3 mg, Concentration (ng/mL), plasma epinephrine, Group 7, dose 0.3 mg, subject 701, male, Day 1, hour 0.25, LLQ 2 ng/mL): 2.44 ng/mL
concentration at 0.5 h (male, New Zealand White Hra:(NZW)SPF, rabbit, plasma, intramuscular, 0.3 mg, Concentration (ng/mL), plasma epinephrine, Group 7, dose 0.3 mg, subject 701, male, Day 1, hour 0.5, LLQ 2 ng/mL): 2.06 ng/mL
concentration at 0.75 h (male, New Zealand White Hra:(NZW)SPF, rabbit, plasma, intramuscular, 0.3 mg, Concentration (ng/mL), plasma epinephrine, Group 7, dose 0.3 mg, subject 701, male, Day 1, hour 0.75, LLQ 2 ng/mL): 2.84 ng/mL
concentration at 1 h (male, New Zealand White Hra:(NZW)SPF, rabbit, plasma, intramuscular, 0.3 mg, Concentration (ng/mL), plasma epinephrine, Group 7, dose 0.3 mg, subject 701, male, Day 1, hour 1, LLQ 2 ng/mL): 3.1 ng/mL
concentration at 0 h (male, New Zealand White Hra:(NZW)SPF, rabbit, plasma, intramuscular, 0.3 mg, Concentration (ng/mL), plasma epinephrine, Group 7, dose 0.3 mg, subject 703, male, Day 1, hour 0, LLQ 1 ng/mL): 1.92 ng/mL
concentration at 0.033 h (male, New Zealand White Hra:(NZW)SPF, rabbit, plasma, intramuscular, 0.3 mg, Concentration (ng/mL), plasma epinephrine, Group 7, dose 0.3 mg, subject 703, male): 8.06 ng/mL
concentration at 0.083 h (male, New Zealand White Hra:(NZW)SPF, rabbit, plasma, intramuscular, 0.3 mg, Concentration (ng/mL), plasma epinephrine, Group 7, dose 0.3 mg, subject 703, male, Day 1, hour 0.083, LLQ 1 ng/mL): 6.6 ng/mL
concentration at 0.125 h (male, New Zealand White Hra:(NZW)SPF, rabbit, plasma, intramuscular, 0.3 mg, Concentration (ng/mL), plasma epinephrine, Group 7, dose 0.3 mg, subject 703, male, Day 1, hour 0.125, LLQ 1 ng/mL): 3.53 ng/mL
concentration at 0.167 h (male, New Zealand White Hra:(NZW)SPF, rabbit, plasma, intramuscular, 0.3 mg, Concentration (ng/mL), plasma epinephrine, Group 7, dose 0.3 mg, subject 703, male, Day 1, hour 0.167, LLQ 1 ng/mL): 2.32 ng/mL
concentration at 0.25 h (male, New Zealand White Hra:(NZW)SPF, rabbit, plasma, intramuscular, 0.3 mg, Concentration (ng/mL), plasma epinephrine, Group 7, dose 0.3 mg, subject 703, male, Day 1, hour 0.25, LLQ 1 ng/mL): 3.5 ng/mL
concentration at 0.333 h (male, New Zealand White Hra:(NZW)SPF, rabbit, plasma, intramuscular, 0.3 mg, Concentration (ng/mL), plasma epinephrine, Group 7, dose 0.3 mg, subject 703, male, Day 1, hour 0.333, LLQ 1 ng/mL): 3.78 ng/mL
concentration at 0.5 h (male, New Zealand White Hra:(NZW)SPF, rabbit, plasma, intramuscular, 0.3 mg, Concentration (ng/mL), plasma epinephrine, Group 7, dose 0.3 mg, subject 703, male, Day 1, hour 0.5, LLQ 1 ng/mL): 2.86 ng/mL
concentration at 0.75 h (male, New Zealand White Hra:(NZW)SPF, rabbit, plasma, intramuscular, 0.3 mg, Concentration (ng/mL), plasma epinephrine, Group 7, dose 0.3 mg, subject 703, male, Day 1, hour 0.75, LLQ 1 ng/mL): 5.36 ng/mL
concentration at 1 h (male, New Zealand White Hra:(NZW)SPF, rabbit, plasma, intramuscular, 0.3 mg, Concentration (ng/mL), plasma epinephrine, Group 7, dose 0.3 mg, subject 703, male, Day 1, hour 1, LLQ 1 ng/mL): 5.17 ng/mL
concentration at 0 h (male, New Zealand White Hra:(NZW)SPF, rabbit, plasma, intramuscular, 0.3 mg, Concentration (ng/mL), plasma epinephrine, Subject Group 3, dose 0.3 mg, male rabbits, Day 1, Hour 0): 2.29 ng/mL
concentration at 1 h (male, New Zealand White Hra:(NZW)SPF, rabbit, plasma, other: sublingual/buccal tablet, 35 mg, Concentration (ng/mL), plasma epinephrine, Group 2, dose 35 mg, subject 306, male, Day 1, hour 1, LLQ 2 ng/mL): 10.6 ng/mL
SMILES: CNC[C@H](O)c1ccc(O)c(O)c1 [Epinephrine]
